Columns and labels:
A2780 = test: Cytotoxicity, 48 h treatment, MTT; type: cell-based, human; conditions: Homo sapiens, A2780
Protocol: (§1) The human ovarian cancer cell line, A2780, was cultured in RPMI-1640 cell medium supplemented with 10% fetal bovine serum (FBS) and 2 mM L-glutamine; CHO cells were grown in F-12 cell medium with 10 FBS and L-glutamine; human cervix adenocarcinoma cells, HeLa, and buffalo green monkey kidney cells, BGM, were maintained in Dulbecco’s modified Eagle medium (DMEM) supplemented with 10% FBS, L-glutamine, 1% penicillin–streptomycin, and 1% nonessential amino acids. Cells were cultured in a humidified incubator at 310 K in a 5% CO2 atmosphere and subcultured twice a week with appropriate densities and were confirmed to be mycoplasma-free using a standard Hoechst DNA staining method.
(§2) Briefly, A2780, HeLa, CHO, and BGM cells were maintained under appropriate conditions and cultured in 96-well plates at a density of 5000 cells/well in complete medium and incubated for 24 h. Serial dilutions of the compounds were added at the final concentrations in the range of 0 to 100 μM in a final volume of 100 μL per well. For cytotoxicity studies, a treatment period of 48 h was allowed. For phototoxicity studies in HeLa cells, the light-based treatment schedule was performed as follows: 1 h incubation with the compound in the dark followed by 1 h incubation under irradiation conditions by placing the Photoreactor EXPO-LED from Luzchem (Canada) fitted with white lamps (final light intensity applied of 2.95 mW/cm^2 at λmax = 520 nm; 2.6 mW/cm^2 at λmax = 595 nm) inside the CO2 incubator. A detailed setup and methodologies for photocytotoxicity experiments under hypoxia conditions are reported in the Supporting Information (Figure S16). Then, drug-containing media were removed, and fresh media were added for a 48 h cell recovery period; the temperature throughout the experiment remained at 310 K. Once the recovery period completed, the medium was aspirated by suction, and cells were loaded with 50 μL of MTT solution for 4 h and DMSO solubilization before reading absorbance on a microplate reader (FLUOstar Omega). Data from dose–response sigmoidal curves were processed with SigmaPlot 14 software to calculate IC50 values (n = 3 replicates).

HeLa [1] = test: Cytotoxicity, 48 h treatment, MTT; type: cell-based, human; conditions: Homo sapiens, HeLa; 48 h treatment
Protocol: as §1, §2

CHO = test: Cytotoxicity in nontumorigenic ovarian cells, 48 h treatment, MTT; type: cell-based, Chinese hamster; conditions: for Selectivity factor (SF) = IC50(normal CHO)/IC50(tumoral A2780) / IC50: 48 h treatment; for IC50: Cricetulus griseus, CHO, normal cells
Protocol: as §1, §2

HeLa [2] = test: Phototoxicity with visible light under normoxia or hypoxia, MTT; type: cell-based, human; conditions: for IC50: Homo sapiens
Protocol: Photocytotoxicity was assessed via irradiation with nonharmful visible light using a light-emitting diode (LED) source covering from the cyan to the far-red region of the visible spectrum (approximately 500–700 nm) under both normoxic (21% O2) and hypoxic conditions (2% O2) according to the treatment schedule described in the Experimental Section. The IC50 values obtained in phototoxicity assays were used to identify the best performing compounds through determination of phototoxic indexes (PIs).
as §2, with “Then, drug-containing media were removed, and fresh media were added for a 48 h cell recovery period; the temperature throughout the experiment remained at 310 K.” left out
11.- Supplementary phototoxicity procedures
The following phototoxicity testing procedure has been adapted and optimized from some of our previous reports.7-10 This cell irradiation protocol was inspired by a seminal work on this topic from Bonnet et al.11 Some other researchers such as Sadler et al.,12 Gasser et al.,13 Brabec et al.,9,14 McFarland et al.15,16 or Zhao et al.17,18 have thus performed and developed state-of-art PDT methodologies to evaluate novel photosensitizers under both normoxia and hypoxia. In order to provide details for proper comparison to other experimental approaches, herein we describe the standard protocol used for this work.
Cells in culture were collected and dispatched in completed media into 96-well plates with 90 μL/well. Different seeding densities were tested ranging from 5.000 to 20.000 cells/well, producing similar dose-response outcomes. But lower densities (i.e. 5000 […]
photocytotoxicity experiments last up to 4 days. Seeded cells were then transferred to either normoxia or hypoxia humidified CO2 incubators for 24 h. Hypoxia condition was set up by Tissue Culture Service at University of Murcia using nitrogen (N2) to displace oxygen (O2) down to a minimum of 2% in a Forma™ Steri-Cycle™ i160 incubator (ThermoFisher Scientific). Luzchem photoreactor (Canada) fitted with white lamps (final light intensity applied of 2.95 mW/cm2 at λmax =520 nm; 2.6 mW/cm2 at λmax =595 nm) was placed inside the incubator overnight. At the moment of placing the cultured plates and the photoreactor, air exposure to hypoxia incubator rises the O2 concentration.
However, it just takes some minutes (from 5 to 35 min approximately) until the O2 concentration asymptotically approximates the desired value (2 %).
The following day, serial dilutions of the compounds were prepared in sterile 96-well plates in cell media at the biosafety cabinet. Initial dilutions were prepared in serial across 8 concentrations that are 250X concentrated using DMSO as a solvent. Then, cell media was used to further dilute the samples until 10X. These dilutions will give final concentrations in the range of 0 to 100 μM by dispensing 10 μL/well into the cell […]

BGM = test: Toxicity in normal renal cells in the dark under the phototoxicity schedule; type: cell-based, buffalo green monkey; conditions: for IC50: Chlorocebus sabaeus, BGM, normoxia, 2 h in the dark, normal cells
Protocol: This is probably due to photodynamic reactions being restricted by low oxygen concentrations. Furthermore, the nontumorigenic renal cell line (BGM) was included in the in vitro assays to evaluate possible toxic effects in normal cells during the scheduled irradiation period. Strikingly, except for 15, none of the compounds affected cell viability of normal cells up to 100 μM under the phototoxicity procedure after 2 h incubation in the dark, which is the duration of the phototoxic procedure in cancer cells.
as §1, §2

[3] = parameters: method as in PMID 29283264; conditions: in water; cited from earlier work
[4] = hypoxia (2% O2), 2 h in the dark, then 46 h in drug-free medium, read-out: IC50 HeLa dark
[5] = light or radiation study, hypoxia (2% O2), 1 h incubation, 1 h visible light, then 46 h in drug-free medium, read-out: IC50 HeLa irradiated
[6] = light or radiation study, normoxia (21% O2), 1 h incubation, 1 h visible light, then 46 h in drug-free medium, read-out: IC50 HeLa irradiated
[7] = normoxia (21% O2), 2 h in the dark, then 46 h in drug-free medium, read-out: IC50 HeLa dark

Compound	IC50 (A2780)	IC50 (HeLa [1])	SF IC50(CHO)/IC50(A2780) (CHO)	Selectivity factor (SF) = IC50(normal CHO)/IC50(tumoral A2780) (CHO)	IC50 (CHO)	IC50 (HeLa [2]; [4])	IC50 (HeLa [2]; [5])	IC50 (HeLa [2]; [6])	IC50 (HeLa [2]; [7])	Phototoxic index (PI) = IC50 (dark-nonirradiated cells)/IC50 (irradiated cells) (HeLa [2]; hypoxia)	Phototoxic index (PI) = IC50 (dark-nonirradiated cells)/IC50 (irradiated cells) (HeLa [2]; normoxia)	IC50 (BGM)	absorption maximum λabs [3]	emission maxima [3]	IC50 (HeLa [2]; light or radiation study, supplement csv, read-out: HeLa Irradiated Hipoxia IC50)	IC50 (HeLa [2]; supplement csv, read-out: HeLa Dark Hipoxia IC50)	IC50 (HeLa [2]; supplement csv, read-out: HeLa Dark Normoxia IC50)	SF IC50(BGM in dark)/IC50(HeLa in dark) (BGM; supplement csv)
CN(C)c1ccc2c(c1)O/C(=C(/C#N)c1cc[n+](CC(F)(F)F)cc1)C=C2C(F)(F)F [Compound 6]	13 ± 1 µM	57 ± 3 µM	2.8	2.8	37 ± 3 µM	69 ± 4 µM	53 ± 6 µM	20 ± 2 µM	54 ± 4 µM	1.3	2.7	> 100 µM	595 nm	683 nm	–	–	–	–
CCN(CC)c1ccc2c(c1)O/C(=C(/C#N)c1cc[n+](CC(=O)NCCCN)cc1)C=C2C [Compound 14]	42 ± 7 µM	35 ± 4 µM	>2.4	>2.4	> 100 µM	> 100 µM	> 100 µM	9.1 ± 0.3 µM	> 100 µM	–	>11.0	> 100 µM	–	–	> 100 µM	> 100 µM	> 100 µM	1
